Test results taken from patent US12016858B2, “Methods for the treatment of abnormal involuntary movement disorders” (AUSPEX PHARMACEUTICALS, INC., priority 2015, dated 2024).

What was measured:
[1] = tested on: patients with moderate to severe tardive dyskinesia; experiment: ARM-TD randomized, double-blind, placebo-controlled study; assay type: in vivo, human
From the text: An additional clinical study, Aim to Reduce Movements in […] Dyskinesia (ARM-TD) was designed and conducted to evaluate the efficacy of SD-809 (deutetrabenazine) in the treatment of moderate to severe tardive dyskinesia. […] Subjects were screened for inclusion in the study as follows. Inclusion criteria included: between 18 and 75 years of age, inclusive; history of using a dopamine receptor antagonist for at least 3 months (or 1 month in subjects 60 years of age and older); clinical diagnosis of TD, and has had symptoms for at least 3 months prior to Screening; […] Dosing. […] Drug was then administered at that dose for another six weeks for a total treatment of 12 weeks, followed by a 1-week washout period. […] Dose suspensions of up to one week were permitted if the subject experienced a clinically significant adverse event. Study Objectives and Endpoints. The objectives of the study was to evaluate the efficacy of SD-809 in reducing the severity of abnormal involuntary movements associated with tardive dyskinesia and the safety and tolerability of titration and maintenance therapy with deutetrabenazine in subjects with drug-induced tardive dyskinesia. […] Baseline AIMS score is defined for each subject as the Day 0 assessment. The AIMS is composed of 12 clinician-administered and scored items. Items 1-10 are rated on a 5-point, anchored scale and consist of the following: • Items 1-4 assess orofacial movements; • Items 5-7 deal with extremity and truncal dyskinesia; • Items 8-10 deal with global severity as judged by the examiner, and the patient's awareness of the movements and the distress associated with them; and • Items 11-12 are yes/no questions concerning problems associated with teeth and/or dentures, as such problems can be mistaken for dyskinesia. […] As with previous studies, […] treatment success may be defined as Much or Very Much Improved on a 7-point Likert Scale, ranging from very much worse to very much improved at Week 12. The CDQ-24 is a disease-specific quality of life questionnaire developed for use in patients with craniocervical dystonia, including both cervical dystonia (CD) and blepharospasm (BPS). The CDQ-24 was selected for use in the present study because it includes domains which are relevant not only to CD and BPS, but to TD, such as stigma, emotional well-being, pain, activities of daily living, and social/family life. For the present study, the CDQ-24 has been modified such that the questions focus more directly on the impact of TD (as opposed to CD/BPS) on quality of life. […] Measurements and Statistics. Digital video recordings of AIMS assessments made at all clinic visits (at Screening, Baseline, Weeks 2, 4, 6, 9, and 12) were rated by pairs of central raters who were experts in movement disorders and were blinded to treatment arm, sequence of video, and the investigator AIMS score. Analysis was carried out using a linear mixed model for repeated measurements (MMRM) with the change in the AIMS score as the dependent variable. The model included fixed effects for treatment group, time point (five levels: Weeks 2, 4, 6, 9, and 12), the treatment group by time point interaction, and the randomization stratification variable. The unstructured covariance model was used and the primary analysis compared the deutetrabenazine and placebo groups at Week 12 using a two-sided test at the 5% level of significance.

[2] = tested on: subjects with chorea associated with HD; settings: in vivo
Method: First-HD was a randomized, double-blind, placebo-controlled, parallel-group study designed to evaluate the efficacy, safety, and tolerability of deutetrabenazine in subjects with chorea associated with HD. This trial was conducted in the United States and Canada, in collaboration with the Huntington Study Group.
Subjects in First-HD were treated with deutetrabenazine or placebo, starting at 6 mg once per day and titrating weekly to doses of up to 24 mg twice per day (48 mg total maximum daily dose). A total of 90 subjects (45 in each group) were enrolled for evaluation over 13 weeks. Subjects were individually titrated to an optimal dose over up to eight weeks, received maintenance therapy at the optimal dose for four weeks, and were taken off study medication in the final week of the trial.
The primary efficacy endpoint for the study was the change from baseline to maintenance therapy (average of Week 9 and Week 12 values) in the maximal chorea score of the UHDRS. The total maximal score, or TMC, is a clinician-based, quantitative assessment of chorea in seven body regions: face, mouth/tongue, trunk, and the four extremities, with higher scores representing more severe chorea.
The total motor score (TMS) of the UHDRS was prespecified as an additional efficacy endpoint in First-HD. The TMS assesses all the motor features of HD, including items addressing characteristic motor abnormalities other than chorea, such as dystonia, gait, parkinsonism, and postural instability.
The clinical relevance of the change in the TMC score was assessed with four prespecified secondary endpoints that assessed changes from baseline to end of treatment (Week 12). These secondary endpoints were tested in a hierarchical manner: • 1. Treatment success based on patient global impression of change (PGIC); • 2. Treatment success based on clinical global impression of change (CGIC); • 3. Physical Functioning Scale of the SF-36; and • 4. Balance, as assessed by the Berg Balance Test (BBT).
The PGIC and CGIC are single-item questionnaires that ask the subject and investigator, respectively, to assess a subject's overall HD symptoms at specific visits after initiating therapy. Both assessments use a 7-point Likert Scale, with responses ranging from Very Much Worse (−3) to Very Much Improved (+3) to assess overall response to therapy.
Adverse events (AE) and their potential association with treatment were also monitored. Categories of AEs of particular focus included those known to be associated with tetrabenazine use: • Psychiatric disorders: insomnia, depression/agitated depression, abnormal dreams, agitation, anxiety, suicidal ideation, compulsions, impulsive behavior, and sleep disorders; • Nervous system disorders: somnolence, dizziness, akathisia/restlessness, cognitive disorders, drooling, dyskinesia, migraine, headache, loss of consciousness, and syncope (fainting); • General disorders: irritability, fatigue, gait disturbance, chest pain, and hangover; and • Gastrointestinal disorders: diarrhea, dry mouth, constipation, nausea, upper abdominal pain, dyspepsia, frequent bowel movements, gastrointestinal pain, vomiting, dysphagia, flatulence, and salivary hypersecretion.
In addition to AE reporting, rating scales were used to monitor for potential subclinical toxicity due to excessive monoamine depletion. […] These scales applied in First-HD included the Hospital Anxiety and Depression Scale (HADS), the Columbia Suicide Severity Rating Scale (C-SSRS), the Swallowing Disturbance Questionnaire (SDQ), the Unified Parkinson's Disease Rating Scale (dysarthria item) (UPDRS [dysarthria]), the Barnes Akathisia Rating Scale (BARS), and the Epworth Sleepiness Scale (ESS). In addition, the UHDRS, which includes cognitive, behavioral, and functional measures, was performed at key visits.

[3] = Phase 1 pharmacokinetic comparison of deutetrabenazine and tetrabenazine; assay type: in vivo, healthy volunteer subjects; settings: 24-mg dose of deutetrabenazine
From the text: The guidance for investigators on conversion of subjects from stable doses of tetrabenazine to deutetrabenazine in the ARC-HD Switch study was designed to minimize the risk that dose conversion would result in either loss of efficacy or increased adverse events. The conversion method applied was based on modeling and simulation of Phase 1 pharmacokinetic data for deutetrabenazine and tetrabenazine. The objective of the pharmacokinetic analysis was to identify an initial dosing regimen of deutetrabenazine predicted to provide exposure at steady state of the active α and β metabolites that was less than or equal to the predicted AUC at steady state of the active alpha and beta metabolites of tetrabenazine, but with a lower Cmax.
In a Phase 1 single-center, open-label, crossover clinical trial, each of 24 healthy volunteer subjects received single doses of 25 mg of tetrabenazine and 15 mg of deutetrabenazine. […]
Subjects in the Switch cohort completed a full screening evaluation. […] The investigator, in consultation with the subject and caregiver, determined when an adequate level of chorea control had been achieved. If a subject experienced a “clinically significant” adverse event attributable to deutetrabenazine, the investigator determined if a dose reduction or suspension was necessary.

[4] = n = 58, count (percent), listed as DTBZ

Which “CGIC Treatment Success, Treatment Difference” value ([1]; DTBZ vs Placebo) does the source give for [2H]C([2H])([2H])Oc1cc2c(cc1OC([2H])([2H])[2H])C1CC(=O)C(CC(C)C)CN1CC2 (stereo not drawn) [deutetrabenazine, (RR, SS)-1,3,4,6,7,11b-hexahydro-9,10-di(methoxy-d3)-3-(2-methylpropyl)-2H-benzo[a]quinolizin-2-one] here?
The value was 7.90%.

What about the “Change from baseline mCDQ-24, Treatment Difference” value ([1]; DTBZ vs Placebo) of the same compound?
The value was −2.7.

What about the “PGIC Treatment Success, Treatment Difference” value ([1]; DTBZ vs Placebo) of the same compound?
Its value is 13.00%.

What about the “AIMS Change (LS Mean), Treatment Difference” value ([1]; DTBZ vs Placebo, p-value 0.0188) of the same compound?
Its value is −1.4.

And the “Change from baseline mCDQ-24” value ([1]; N = 56)?
Its value is −11.1.

What about the “CGIC Treatment Success (%)” value ([1]; Week 12, N = 56) of the same compound?
The value was 48.20%.

What about the “PGIC Treatment Success N (%)” value ([1]; Week 12, N = 56) of the same compound?
Its value is 42.90%.

And the “AIMS Change (LS Mean)” value ([1]; baseline to Week 12, N = 56)?
Its value is −3.

And the “improvement on the AIMS score” value ([1]; baseline to end of therapy)?
The value was 3.0 points.

And the Depression/depressed mood reported ([1]; in vivo)?
The Depression/depressed mood reported was “one patient”.

And the suicidal ideation reported ([1]; in vivo)?
The suicidal ideation reported was “none”.

And the “Any TEAEs (Treatment-Emergent Adverse Events)” value ([1]; n = 58, count (percent))?
Its value is 41 (70.7%).

And the “TEAE Anxiety” value ([1]; n = 58, count (percent))?
Its value is 3 (5.2%).

And the “TEAE Chest pain” value ([1]; n = 58, count (percent))?
Its value is 1 (1.7%).

What about the “TEAE Constipation” value ([1]; n = 58, count (percent)) of the same compound?
Its value is 2 (3.4%).

And the “TEAE Diarrhea” value ([1]; n = 58, count (percent))?
Its value is 3 (5.2%).

And the “TEAE Dizziness” value ([1]; n = 58, count (percent))?
Its value is 2 (3.4%).

And the “TEAE Dry mouth” value ([1]; n = 58, count (percent))?
The value was 2 (3.4%).

What about the “TEAE Fatigue” value ([1]; n = 58, count (percent)) of the same compound?
The value was 4 (6.9%).

And the “TEAE Headache” value ([1]; n = 58, count (percent))?
The value was 4 (6.9%).

And the “TEAE Nasopharyngitis” value ([1]; n = 58, count (percent))?
Its value is 2 (3.4%).

What about the “TEAE Nausea” value ([1]; n = 58, count (percent)) of the same compound?
The value was 2 (3.4%).

And the “TEAE Pneumonia” value ([1]; n = 58, count (percent))?
The value was 1 (1.7%).

And the “TEAE Upper respiratory tract infection” value ([1]; n = 58, count (percent))?
The value was 2 (3.4%).

And the “TEAE Vomiting” value ([1]; n = 58, count (percent))?
Its value is 1 (1.7%).

What about the “Serious TEAEs” value [1, 4] of the same compound?
The value was 4 (6.9%).

And the “TEAE Akathisia” value [1, 4]?
The value was 3 (5.2%).

And the “TEAE Insomnia” value [1, 4]?
Its value is 4 (6.9%).

What about the “TEAE Somnolence/sedation” value [1, 4] of the same compound?
The value was 9 (15.5%).

What about the “TEAEs Resulting in Study Withdrawal” value [1, 4] of the same compound?
Its value is 1 (1.7%).

What about the “deaths in the study” value [2] of the same compound?
The value was “no deaths”.

And the “peak concentration (Cmax) vs 50 mg of tetrabenazine” value [3]?
The value was “lower peak concentration (Cmax)”.

And the “systemic exposure (AUC)” value [3]?
The value was “comparable systemic exposure (AUC) to 50 mg of tetrabenazine”.
